In general, melting point refers to the temperature of the solid-liquid transition. `Cc1oc(-c2ccccc2)nc1COc1cccc(COc2cc(Cl)ccc2C(=O)O)c1` gave a melting point of 168 °C.

As for `O=C1NC(=O)C(Cc2ccc(OC3=C(Cl)C(=O)c4ccccc4C3=O)cc2)S1` (centres undefined), the melting point was in the range of 250 to 252 °C. For `CN(C)Cc1ccc(-c2cc3ncc(C#N)c(Cl)c3s2)cc1`, the melting point is 166 to 168 °C. The same measure for `O=C(O)c1cccc(NCc2cccs2)c1C(=O)O`: 223 to 225 °C; for `O=C(Nc1c(Cl)cncc1Cl)c1ccc(OC(F)F)c2oc3ccc(C(F)(F)F)cc3c12`: 228 °C.

On to `CN1C(=S)C(NC(=O)CCC2CCCCC2)N=C(c2ccccc2)c2ccccc21` (centres undefined), for which the melting point fell in the range of 219 to 221 °C. The same measure for `CC(C)c1ccc(C(=O)c2c(N)sc3c2CCN(Cc2ccccc2)C3)cc1`: 157 to 158 °C; for `C=Cn1c(C)c(C)c2cnnc(OCc3ccccc3)c21`: 85 to 86 °C. `CCOC(=O)CSc1nc(Cl)cc(NCc2ccc(F)cc2)n1` displayed a melting point of 70 to 75 °C. With `O=C(Nc1sc2c(c1C(=O)O)CCOC2)c1nn[nH]n1` the figure was over 250 °C. For `O=C(Cc1ccc2ccn(C3CCN(CCc4ccc(F)cc4)CC3)c2c1)NCCO`, the melting point was 140 to 141 °C. `CN1C(=O)c2c(Oc3ccccc3O)cc3[nH]c4cc(O)ccc4c3c2C1=O` gave a melting point of 200 °C. `CCCCOCCCNc1ccc(-n2cc(C(F)(F)F)ccc2=O)c(Cl)c1` returned a melting point of 83 to 85 °C. For the compound `COC(=O)c1cc(NC(=N)N)c(NC(C)=O)cc1O`, the melting point was 233 to 234 °C. The same measure for `CC(C)(C)c1ccc(-c2c(-c3ccncc3)sc3nc(=O)cc(N)n23)cc1`: 259 to 262 °C; for `Cc1c(C(=O)c2ccccc2)cccc1[N+](=O)[O-]`: 42 °C. `CON1C(=O)CC2(CCN(C(=O)c3cccnc3)CC2)C1=O` returned a melting point of 199 to 201 °C. `N#Cc1ccc(CNC(=O)c2ccc(C=O)cc2)cc1` registered a melting point of 170 °C. The same measure for `Cn1c(Cc2c(F)cccc2F)nnc1C(N)=O`: 189 to 190 °C; for `O=C(O)C(O)N1C(=O)CCN1c1ccccc1` (centres undefined): 127 to 129 °C. `CSC(=NC(=O)c1ccccc1)N1CC=C(c2cccc(C(F)(F)F)c2)n2ncc(C(N)=O)c21` showed a melting point of 172 to 175 °C.

In the case of `CCOCC1C(C(=O)O)C1(C)C` (centres undefined), the melting point is 40 to 40.5 °C. Turning to `COc1ccc(-c2ccc(C#N)o2)cc1C(F)(F)F`, the melting point was 61 to 64 °C. The compound `CC(=O)c1ccc(OCCCCCOc2ccc3c(=O)cc(C(=O)O)oc3c2)cc1O` gave a melting point of 226 to 228 °C. The same measure for `CCCCCCc1ccc(-n2c(-c3ccc(C)cc3)cc(Br)c2-c2ccc(C)cc2)cc1`: 134 to 135 °C. The compound `COc1ccccc1N1CCN(C(=O)[C@H](N)Cc2cccnc2)CC1` gave a melting point of over 240 °C. In turn, `CN(C(=O)N1CCN2C(=O)OC(c3ccccc3)(c3ccccc3)C2C1)c1ccccc1` (centres undefined) displayed a melting point of 146 to 147 °C.

`NC1=NC2=NN(c3ccco3)NC2=C2N=CN(Cc3ccc(F)cc3)N12` displayed a melting point of 266 to 268 °C. With `CCCCC(C)c1cc(O)c2c(c1)OC(C)(C)CC2C1=CCN(CCc2ccccc2)CC1` (centres undefined) the figure was 141 to 143 °C; with `CC1(C)SC(c2ccc3c(c2)CCC3)NC1C(=O)O` (centres undefined), 140 to 142 °C; with `O=C(NCCO)/C(=C/c1ccc(Cl)cc1)NC(=O)c1ccc(OCCc2ccc(F)cc2)cc1`, 60 to 63 °C. The same measure for `CN(C)C(=O)C1N=C(c2ccccc2)c2cc(Cl)ccc2NC1=O` (centres undefined): 297 °C. With `CCCCCCCCNC(=O)CC(=O)c1c2ccccc2cc2ccccc12`, the melting point was in the range of 70 to 72 °C. In turn, `CC(C)(C)OC(=O)NNC(=O)c1ccnc2[nH]c(CCc3ccccc3)cc12` displayed a melting point of 187 to 188 °C. The same measure for `CC1(C(F)(F)F)C=C(C(=O)NCCC#N)c2cc([N+](=O)[O-])ccc2O1` (centres undefined): 191 to 193 °C. With `NS(=O)(=O)c1cc(C(=O)O)cc(NCc2ccccc2)c1S(=O)c1ccccc1` (centres undefined) the figure was 234 °C.

Take `COc1ccc(-c2cc3cc(OC)cc(CBr)c3o2)cc1`: the melting point is 158 to 160 °C. `Clc1nc(-c2ccc3c(c2)CCO3)nc2ccccc12` had a melting point of 186 to 192 °C. Compound `Cc1oc2c(C=O)cccc2c1C` came in with a melting point of 56 to 58 °C. Turning to `C[C@@H]1C[C@](C)(O)[C@H](C)N1c1ccc(C#N)c(F)c1`, the melting point lay within 125 to 128 °C. The same measure for `Cc1[nH]c(=O)ccc1C(=O)c1ccc([N+](=O)[O-])cc1`: 282 to 284 °C. With `CCOC(=O)NC(=S)Nc1cc(Br)ccn1` the figure was 107 to 110 °C; with `Cc1cc2c(cc1-c1cc(C=C3SC(=O)NC3=O)ccc1OC(F)(F)F)C(C(C)C)=CCC2(C)C`, 179 °C; with `CC(C)Oc1cccc(-c2nc3ncccc3o2)c1`, 68.5 to 70.5 °C.

For the compound `Cc1cc2c(s1)C(C(=O)Nc1ccccc1)C(=O)N(C)S2(=O)=O` (centres undefined), the melting point lay in the range of 182 to 184 °C. As for `FS(F)(F)(F)(F)c1ccc(/C=C/c2nc(COc3ccc(-c4nc(Cn5ccnn5)co4)cc3)co2)cc1`, the melting point fell in the range of 172 to 174 °C.

For the compound `NC(=S)N(c1ccsc1-c1nc(C2CC2)no1)C1CN2CCC1CC2` (centres undefined), the melting point fell in the range of 155 to 157 °C. Take `COC(=O)C1Cc2c([nH]c3ccccc23)C(c2ccccc2Br)N1` (centres undefined): the melting point lay within 105 to 106 °C. The same measure for `COC(F)(F)C(F)(F)C1(C(F)(F)C(F)(F)OC)OCCO1`: 30 to 40 °C. As to `CSc1ccc2ncn(/C=C/C(=O)O)c(=O)c2c1`, the melting point is 271 to 272 °C. `C=CCn1c(OC)n[nH]c1=O`: the melting point came to 111 °C. In the case of `CNC(=O)c1oc(C(C)(C)C)cc1NC(=O)Nc1ccc(C)cc1`, the melting point lay in the range of 190 to 193 °C. On to `O=C(O)CCC(=O)c1ccc(Cl)c(S(=O)(=O)NCc2ccccc2Cl)c1`, for which the melting point was 158 °C. In turn, `O=C1Nc2ccccc2C(c2ccccc2)N1C1CCN(Cc2ccccc2)CC1` (centres undefined) gave a melting point of 199 to 200 °C. With `Nc1c(-c2cc(Cl)ccc2O)c2ccccc2[nH]c1=O` the figure was 265 to 268 °C; with `CCC(OC)c1ccc(Cl)c2nc3n(c12)CCCN3c1ccc(Cl)cc1Cl` (centres undefined), 136 to 137 °C.

For `O=P(Cc1ccc2ccccc2c1-c1c(CP(=O)(c2ccc(F)cc2)c2ccc(F)cc2)ccc2ccccc12)(c1ccc(F)cc1)c1ccc(F)cc1`, the melting point lay within 211 to 214 °C.

With `CCCCCCCCCCOc1ccc(Cc2cnc(N)nc2N)cc1OC`, the melting point was found to be 169 °C. With `COC(=O)C1CCNC(=O)C1=O` (centres undefined) the figure was 151 to 153 °C; with `COC(=O)c1cccc(Oc2ccnc(Cl)c2)n1`, 89 °C. With `CC(C)CN1C(=O)C(C)(C)C(=O)Nc2ccc(C#N)cc21` the figure was 219 to 220 °C; with `Oc1ccc2c(-c3cc(F)ccc3F)noc2c1Cl`, 256 to 257 °C; with `CN1CCN(c2ccc(F)cc2C=C2CCCN(c3ccc(Cl)cc3)C2=O)CC1`, 158 to 159 °C. The same measure for `COc1cc(-c2nc(=O)c3ccccc3s2)ccn1`: 149 to 150 °C. Take `Oc1ccc2c(c1)CC(NCC(O)c1cccc(Cl)c1)CC2` (centres undefined): the melting point came to 175 °C. With `COc1ccc2[nH]ncc2c1C` the figure was 148 to 149 °C.

Consider `CC(C)(C)OC(=O)c1c(Cl)cc(N2C(=O)N3CCCC3(Cc3ccc(Br)cc3)C2=O)cc1Cl` (centres undefined), for which the melting point lay within 109 to 110 °C. The same measure for `CS(=O)(=O)c1ccc(-c2cnn(CC=Cc3ccccc3)c(=O)c2-c2ccc(F)cc2)cc1`: 165 to 167 °C.

Take `O=C(O)c1ccc(COCc2csc3nc(C(=O)NCc4cccc(F)c4)[nH]c(=O)c23)cc1`: the melting point was 256 to 280 °C. `O=C(c1ccccc1)c1nc2cc(C(c3ccccc3)n3ccnc3)ccc2[nH]1` (centres undefined) showed a melting point of 223 °C. Take `CC(C(=O)N(C)C)n1c(-c2ccc(Cl)cc2)nc2cccnc21` (centres undefined): the melting point was in the range of 124 to 126 °C.

Regarding `C=CCc1ccc(C(NC(C)=O)C(=O)OC)cc1O` (centres undefined), the melting point fell in the range of 143 to 145 °C. The same measure for `O=C(O)CCCCN1CCN2c3ccccc3Sc3ccccc3C2C1` (centres undefined): 226 to 230 °C; for `COc1cc(NC2=C(Cl)C(=O)c3ccccc3C2=O)ccc1S(=O)(=O)Nc1ccc(C)cc1`: 186 to 189 °C. The compound `CC(=O)Oc1ccc(NC(=O)c2ccc(Sc3cc4c(cc3C)C(C)(C)CCC4(C)C)cc2)cc1` showed a melting point of 186 to 187 °C.

As to `CCOCc1nc2c(NC(=O)C(C)C)nc3ccccc3c2n1CC(C)(C)NS(C)(=O)=O`, the melting point lay in the range of 67 to 70 °C.

Consider `CC(=O)Nc1cccc(C2=NNC(=O)C3CC23)c1` (centres undefined), for which the melting point is 200 to 202 °C. The same measure for `COc1cccc2c1cc(SCCC(=O)O)n2C`: 126 to 128 °C; for `O=C(O)C[C@@H](Oc1c(Br)cc(-c2c3ccccc3c(Br)c3sc4ccccc4c23)cc1Br)C(=O)O`: 163 to 164 °C; for `CC1CC(=O)NN=C1c1ccc(Nc2ccccc2)nc1` (centres undefined): 202 to 204 °C. The same measure for `CC(=O)Nc1ccc(C(=O)Oc2ccccc2)c(Cl)c1`: 84 to 86 °C; for `CCOC(=O)C(=O)CC(=O)c1cn(Cc2ccc(F)cc2)c2ccc(F)cc2c1=O`: 152 to 153 °C. `COC(=O)CCCCCS(=O)c1ccc(-c2ccc(Cl)cc2)cc1` (centres undefined) displayed a melting point of 64 to 65 °C.

On to `Cc1ccc(Oc2ccc(C(=O)O)cc2)cc1`, for which the melting point was determined as 175 °C.

The compound `O=S(=O)(Cl)c1ccc(Oc2ccc(F)cc2)cc1` displayed a melting point of 76 °C.

Regarding `NS(=O)(=O)c1ccc(-n2nc(C(F)(F)F)cc2-c2ccc(-c3ccco3)cc2)c(F)c1`, the melting point is 174 °C.

For `COc1ccc(CSCCNC(=O)c2c(Cl)cccc2Cl)cc1`, the melting point was in the range of 80 to 81 °C.

`O=c1[nH]ncc(Cl)c1NCCN1CCN(c2cccc(C(F)(F)F)c2)CC1` gave a melting point of 220 to 223 °C. Turning to `Nc1ccc(CC2CCN(S(=O)(=O)N3CCCCC3)CC2)cc1`, the melting point fell in the range of 144 to 145 °C.

The record behind these values is a melting point compilation (Tetko et al.; mined from patent text by program, amines drawn as free bases though some values may be those of a salt).
